# Results taken from ChEMBL document CHEMBL1143765 (Science, 2007).
# pIC50: −log10 of the molar value. Active and inactive are the calls of the source. The rule behind the calls is not given here.
# Columns and labels:
# Aquifex aeolicus = experiment: Inhibition of [3H]leucine transport activity of LeuT in proteoliposomes by scintillation proximity assay
# [1] = Displacement of [3H]leucine from Aquifex aeolicus His-LeuT expressed in Escherichia coli by scintillation proximity assay
SMILES,Activity (Aquifex aeolicus),pIC50 [1]
CNCCCN1c2ccccc2CCc2ccccc21 [DESIPRAMINE],Active,4.10
CNCCC=C1c2ccccc2CCc2ccccc21 [NORTRIPTYLINE],–,4.12
CN(C)CCCN1c2ccccc2CCc2ccccc21 [IMIPRAMINE],–,3.61
CNCCC(Oc1ccc(C(F)(F)F)cc1)c1ccccc1 (stereo not given) [FLUOXETINE],–,3.07
